Numbers after ± are expanded uncertainties.
Experiment: molar heat capacity at constant pressure
Settings: 101.33 kPa, Crystal

O=P([O-])([O-])[O-].[Er+3] [erbium phosphate]
Settings | molar heat capacity at constant pressure [J/K/mol]
48.02 K, Vacuum adiabatic calorimetry | 18.68 ± 0.08
49.64 K, Vacuum adiabatic calorimetry | 19.56 ± 0.08
50 K, Drop calorimetry | 19.7 ± 0.59
51.27 K, Vacuum adiabatic calorimetry | 20.45 ± 0.08
52.9 K, Vacuum adiabatic calorimetry | 21.35 ± 0.08
54.54 K, Vacuum adiabatic calorimetry | 22.23 ± 0.09
55 K, Drop calorimetry | 22.45 ± 0.67
56.17 K, Vacuum adiabatic calorimetry | 23.13 ± 0.09
57.81 K, Vacuum adiabatic calorimetry | 24.03 ± 0.09
59.46 K, Vacuum adiabatic calorimetry | 24.96 ± 0.09
60 K, Drop calorimetry | 25.28 ± 0.76
61.11 K, Vacuum adiabatic calorimetry | 25.9 ± 0.09
62.76 K, Vacuum adiabatic calorimetry | 26.86 ± 0.09
64.41 K, Vacuum adiabatic calorimetry | 27.81 ± 0.1
65 K, Drop calorimetry | 28.13 ± 0.84
66.06 K, Vacuum adiabatic calorimetry | 28.75 ± 0.1
67.72 K, Vacuum adiabatic calorimetry | 29.67 ± 0.1
69.38 K, Vacuum adiabatic calorimetry | 30.58 ± 0.1
70 K, Drop calorimetry | 30.96 ± 0.93
71.24 K, Vacuum adiabatic calorimetry | 31.56 ± 0.1
73.31 K, Vacuum adiabatic calorimetry | 32.73 ± 0.11
75 K, Drop calorimetry | 33.73 ± 1
75.38 K, Vacuum adiabatic calorimetry | 33.9 ± 0.11
77.44 K, Vacuum adiabatic calorimetry | 35.09 ± 0.11
78.64 K, Vacuum adiabatic calorimetry | 35.5 ± 0.11
79.51 K, Vacuum adiabatic calorimetry | 36.27 ± 0.11
80 K, Drop calorimetry | 36.43 ± 1.1
81 K, Vacuum adiabatic calorimetry | 37.03 ± 0.11
81.57 K, Vacuum adiabatic calorimetry | 37.33 ± 0.12
83.05 K, Vacuum adiabatic calorimetry | 38 ± 0.12
83.64 K, Vacuum adiabatic calorimetry | 38.24 ± 0.12
85 K, Drop calorimetry | 39.03 ± 1.2
85.11 K, Vacuum adiabatic calorimetry | 38.94 ± 0.12
85.72 K, Vacuum adiabatic calorimetry | 39.22 ± 0.12
87.17 K, Vacuum adiabatic calorimetry | 40.21 ± 0.12
87.79 K, Vacuum adiabatic calorimetry | 40.58 ± 0.12
89.22 K, Vacuum adiabatic calorimetry | 41.36 ± 0.12
89.86 K, Vacuum adiabatic calorimetry | 41.58 ± 0.12
90 K, Drop calorimetry | 41.53 ± 1.2
91.28 K, Vacuum adiabatic calorimetry | 42.3 ± 0.24
91.94 K, Vacuum adiabatic calorimetry | 42.51 ± 0.24
93.33 K, Vacuum adiabatic calorimetry | 43.21 ± 0.24
94.02 K, Vacuum adiabatic calorimetry | 43.42 ± 0.24
95 K, Drop calorimetry | 43.93 ± 1.3
95.39 K, Vacuum adiabatic calorimetry | 44.16 ± 0.24
96.11 K, Vacuum adiabatic calorimetry | 44.4 ± 0.24
97.45 K, Vacuum adiabatic calorimetry | 45.11 ± 0.25
99.5 K, Vacuum adiabatic calorimetry | 46.06 ± 0.25
100 K, Drop calorimetry | 46.24 ± 1.4
102.17 K, Vacuum adiabatic calorimetry | 47.11 ± 0.25
105.46 K, Vacuum adiabatic calorimetry | 48.46 ± 0.25
108.74 K, Vacuum adiabatic calorimetry | 50.01 ± 0.25
110 K, Drop calorimetry | 50.59 ± 1.5
112.02 K, Vacuum adiabatic calorimetry | 51.4 ± 0.25
115.31 K, Vacuum adiabatic calorimetry | 52.75 ± 0.25
118.6 K, Vacuum adiabatic calorimetry | 54.1 ± 0.25
120 K, Drop calorimetry | 54.66 ± 1.6
121.89 K, Vacuum adiabatic calorimetry | 55.38 ± 0.26
125.18 K, Vacuum adiabatic calorimetry | 56.65 ± 0.26
128.48 K, Vacuum adiabatic calorimetry | 57.9 ± 0.26
130 K, Drop calorimetry | 58.5 ± 1.8
131.77 K, Vacuum adiabatic calorimetry | 59.15 ± 0.26
135.06 K, Vacuum adiabatic calorimetry | 60.36 ± 0.26
138.35 K, Vacuum adiabatic calorimetry | 61.56 ± 0.26
140 K, Drop calorimetry | 62.15 ± 1.9
141.64 K, Vacuum adiabatic calorimetry | 62.75 ± 0.26
144.92 K, Vacuum adiabatic calorimetry | 63.93 ± 0.26
148.21 K, Vacuum adiabatic calorimetry | 65.06 ± 0.27
150 K, Drop calorimetry | 65.63 ± 2
151.5 K, Vacuum adiabatic calorimetry | 66.19 ± 0.27
154.79 K, Vacuum adiabatic calorimetry | 67.31 ± 0.27
158.07 K, Vacuum adiabatic calorimetry | 68.34 ± 0.27
160 K, Drop calorimetry | 68.95 ± 2.1
161.36 K, Vacuum adiabatic calorimetry | 69.45 ± 0.27
164.64 K, Vacuum adiabatic calorimetry | 70.45 ± 0.27
167.92 K, Vacuum adiabatic calorimetry | 71.48 ± 0.27
170 K, Drop calorimetry | 72.09 ± 2.2
171.18 K, Vacuum adiabatic calorimetry | 72.5 ± 0.27
174.46 K, Vacuum adiabatic calorimetry | 73.47 ± 0.27
177.73 K, Vacuum adiabatic calorimetry | 74.42 ± 0.27
180 K, Drop calorimetry | 75.06 ± 2.2
181 K, Vacuum adiabatic calorimetry | 75.35 ± 0.28
184.26 K, Vacuum adiabatic calorimetry | 76.23 ± 0.28
187.53 K, Vacuum adiabatic calorimetry | 77.14 ± 0.28
190 K, Drop calorimetry | 77.87 ± 2.3
190.79 K, Vacuum adiabatic calorimetry | 77.99 ± 0.28
194.05 K, Vacuum adiabatic calorimetry | 78.87 ± 0.28
197.31 K, Vacuum adiabatic calorimetry | 79.82 ± 0.28
200 K, Drop calorimetry | 80.51 ± 2.4
200.56 K, Vacuum adiabatic calorimetry | 80.61 ± 0.28
204.21 K, Vacuum adiabatic calorimetry | 81.51 ± 0.28
208.26 K, Vacuum adiabatic calorimetry | 82.53 ± 0.28
210 K, Drop calorimetry | 83.03 ± 2.5
212.31 K, Vacuum adiabatic calorimetry | 83.53 ± 0.28
216.35 K, Vacuum adiabatic calorimetry | 84.52 ± 0.28
220 K, Drop calorimetry | 85.43 ± 2.6
220.38 K, Vacuum adiabatic calorimetry | 85.53 ± 0.29
228.3 K, Vacuum adiabatic calorimetry | 87.52 ± 0.29
230 K, Drop calorimetry | 87.73 ± 2.6
232.31 K, Vacuum adiabatic calorimetry | 88.39 ± 0.29
236.31 K, Vacuum adiabatic calorimetry | 89.17 ± 0.29
240 K, Drop calorimetry | 89.95 ± 2.7
240.3 K, Vacuum adiabatic calorimetry | 90.08 ± 0.29
244.27 K, Vacuum adiabatic calorimetry | 90.89 ± 0.29
248.24 K, Vacuum adiabatic calorimetry | 91.71 ± 0.29
250 K, Drop calorimetry | 92.08 ± 2.8
252.19 K, Vacuum adiabatic calorimetry | 92.54 ± 0.29
256.13 K, Vacuum adiabatic calorimetry | 93.34 ± 0.29
260 K, Drop calorimetry | 94.13 ± 2.8
260.05 K, Vacuum adiabatic calorimetry | 94.13 ± 0.29
263.96 K, Vacuum adiabatic calorimetry | 94.97 ± 0.3
267.82 K, Vacuum adiabatic calorimetry | 95.68 ± 0.3
270 K, Drop calorimetry | 96.08 ± 2.9
271.7 K, Vacuum adiabatic calorimetry | 96.34 ± 0.3
275.56 K, Vacuum adiabatic calorimetry | 97.1 ± 0.3
279.36 K, Vacuum adiabatic calorimetry | 97.78 ± 0.3
280 K, Drop calorimetry | 97.93 ± 2.9
283.13 K, Vacuum adiabatic calorimetry | 98.4 ± 0.3
286.87 K, Vacuum adiabatic calorimetry | 99.05 ± 0.3
290 K, Drop calorimetry | 99.69 ± 3
290.33 K, Vacuum adiabatic calorimetry | 99.68 ± 0.3
294.03 K, Vacuum adiabatic calorimetry | 100.3 ± 0.3
297.69 K, Vacuum adiabatic calorimetry | 101 ± 0.3
300 K, Drop calorimetry | 101.4 ± 3
301.33 K, Vacuum adiabatic calorimetry | 101.7 ± 0.3
305.3 K, Vacuum adiabatic calorimetry | 102.4 ± 0.3
310 K, Drop calorimetry | 103 ± 3.1
311.36 K, Vacuum adiabatic calorimetry | 103.5 ± 0.3
318.34 K, Vacuum adiabatic calorimetry | 104.6 ± 0.3
320 K, Drop calorimetry | 104.8 ± 3.1
325.26 K, Vacuum adiabatic calorimetry | 105.6 ± 0.3
330 K, Drop calorimetry | 106.5 ± 3.2
332.11 K, Vacuum adiabatic calorimetry | 106.5 ± 0.3
338.88 K, Vacuum adiabatic calorimetry | 107.5 ± 0.3
340 K, Drop calorimetry | 108.2 ± 3.2
345.58 K, Vacuum adiabatic calorimetry | 108.5 ± 0.3
350 K, Drop calorimetry | 109.8 ± 3.3
400 K, Drop calorimetry | 116.9 ± 3.5
450 K, Drop calorimetry | 122.8 ± 3.7
500 K, Drop calorimetry | 127.7 ± 3.8
550 K, Drop calorimetry | 131.8 ± 4
600 K, Drop calorimetry | 135.4 ± 4.1
650 K, Drop calorimetry | 138.4 ± 4.2
700 K, Drop calorimetry | 141 ± 4.2
750 K, Drop calorimetry | 143.3 ± 4.3
800 K, Drop calorimetry | 145.3 ± 4.4
850 K, Drop calorimetry | 147.1 ± 4.4
900 K, Drop calorimetry | 148.8 ± 4.5
950 K, Drop calorimetry | 150.2 ± 4.5
1000 K, Drop calorimetry | 151.6 ± 4.5
1050 K, Drop calorimetry | 152.8 ± 4.6
1100 K, Drop calorimetry | 154 ± 4.6
1150 K, Drop calorimetry | 155.1 ± 4.7
1200 K, Drop calorimetry | 156.1 ± 4.7
1250 K, Drop calorimetry | 157.1 ± 4.7
1300 K, Drop calorimetry | 158.1 ± 4.7
1350 K, Drop calorimetry | 158.9 ± 4.8
1400 K, Drop calorimetry | 159.8 ± 4.8
1450 K, Drop calorimetry | 160.6 ± 4.8
1500 K, Drop calorimetry | 161.4 ± 4.8
1550 K, Drop calorimetry | 162.2 ± 4.9
1600 K, Drop calorimetry | 162.9 ± 4.9

From the NIST ThermoML archive (doi:10.1016/j.tca.2012.02.002)
